From patent US20080175902A1, “Methods for slowing the progression of multiple sclerosis” (University of Plymouth, priority 2006, published 2008)

How the values were obtained:
[1] = system: patients with multiple sclerosis with problematic spasticity; test: Ashworth score of spasticity, randomized placebo-controlled 15 week study; type: in vivo, human; details: baseline to 13 weeks follow-up
[2] = system: patients with multiple sclerosis; test: Timed 10 meter walk, 15 week study; type: in vivo, human
Description: (§1) Secondary outcomes were also measured in the above-described study. Such secondary outcomes included the Rivermead mobility index (See e.g. Collen, F. M. et al., The Rivermead mobility index: a further development of the Rivermead motor assessment. Int. Disanil. Stud. 1991; 13:50 54) hereby incorporated by reference in its entirety, a timed 10 meter walk, four self completion questionnaires—the United Kingdom neurological disability score (See e.g. Sharrack, B., Hughes R. A., The Guy's neurological disability scale (GNDS): a new disability measure for multiple sclerosis. Mult. Sder. 1999; 5: 223-33), and a series of nine category-rating scales. For the category-rating scale assessment, patients were asked to assess how their symptoms had been over the previous week compared with how they were just before the study started. Categories included irritability, depression, tiredness, muscle stiffness, tremor, pain, sleep, muscle spasms, and amount of energy.
With respect to secondary outcome measures, 322 patients provided at least one baseline walk time. Of these, seven (1 cannabis extract, 3 delta-9-THC, 3 placebo) dropped out of the trial. Walk times were obtained from 278 patients at visit seven. In total, 20 patients were unable to walk (8 cannabis extract, 5 delta-9-THC, 7 placebo) and very large walk times were substituted for these individuals.

[3] = system: patients with multiple sclerosis; test: Category-rating scales of symptoms, 15 week study; type: in vivo, human; details: category rating vs before study start
Description: as §1
Category rating scales were used to assess whether patients felt their symptoms had improved while on treatment relative to before start of treatment. Overall, patients felt that symptoms of pain, sleep quality, spasms, and had improved while on active treatment.

[4] = system: patients with multiple sclerosis; test: Patient assessment of treatment benefit at visit 8; type: in vivo, human; details: patient assessment at visit 8
Excerpt: At visit 8 in the study described in Examples 1 and 2, patients were asked uestions about whether treatment had improved pain, tremor, spasticity, or ymptoms. […] Overall, more patients perceived an improvement in spasticity and pain when taking the active treatments than when taking placebo. Difference in perception of improvement in tremor was not statistically significant and no treatment effect on bladder symptoms was identified. Although there was no stratification for these specific symptoms between groups, the groups were broadly balanced for these symptoms apart from bladder symptoms, where there were fewer patients with urinary symptoms in the group taking, delta-9-THC.

[5] = system: patients with multiple sclerosis; test: Ashworth score, 52 week follow up; type: in vivo, human
Excerpt: In Example 4, the study described in Examples 1-3 above was continued to determine if long-term therapy with D9-TCH or cannabis plant extract would affect the progression of MS. At the end of week 15, patients were offered the opportunity to resume medication at the previously determined dose for a maximum of 52 weeks. If patients decided not to continue medication, the reasons for non-continuance were documented. Throughout the study, capsule compliance was checked at clinic visits by counting the number of capsules returned. Urine samples for cannabinoid analysis were collected at each clinic visit during the follow up phase in order to evaluate potential cannabis use in the placebo group.
(§2) In order to reduce the potential for unmasking bias from treatment side effects, two study personnel were used at each centre. A treating physician monitored the dosage, side effects, and patient wellbeing, while an assessor (usually a physiotherapist) measured the Ashworth score, timed 10 metre walk, and Rivermead Mobility Index (RMI). […] Assessors remained blinded to any discussion of dosage or side effects, and when evaluating patients' spasticity, were instructed not to have access to their assessment scores from previous visits. Self completion booklets containing the General Health Questionnaire-30 (GHQ-30), category rating scales (asking patients to assess any change in their symptoms at that point in the study compared with how they were before they started medication, and measuring irritability, depression, tiredness, muscle stiffness, tremor, pain, sleep, muscle spasms, and energy levels), the UK Neurological Disability Scale (UKNDS), and the Barthel Index (BI) were sent to participants just prior to week 27 and week 52. The Expanded Disability Status Scale (EDSS) was used at week 52.
As set forth in FIG. 5, 95% Confidence intervals for differences in means (active minus placebo) of changes in total Ashworth score at each visit are shown. […] For these patients, their last Ashworth score (visit 10) was carried forward as their final measured response. […]

[6] = system: patients with multiple sclerosis; test: Rivermead Mobility Index (RMI), 52 week follow up; type: in vivo, human; details: FIG. 6
Excerpt: (§3) In order to reduce the potential for unmasking bias from treatment side effects, two study personnel were used at each centre. A treating physician monitored the dosage, side effects, and patient wellbeing, while an assessor (usually a physiotherapist) measured the Ashworth score, timed 10 metre walk, and Rivermead Mobility Index (RMI). […] Assessors remained blinded to any discussion of dosage or side effects, and when evaluating patients' spasticity, were instructed not to have access to their assessment scores from previous visits. […]
(§4) Times taken to complete a 10 metre walk were analysed using the Kruskal-Wallis test, and non-parametric methods were used to produce confidence intervals for the median. The RMI, UKNDS, postal BI, and GHQ-30 were each analysed using non-parametric analysis of variance to compare the groups. EDSS scores were analysed using Fisher's exact test. Category rating scales were analysed using contingency table analysis. […]

[7] = system: patients with multiple sclerosis; test: Timed 10 metre walk / ability to walk, 52 week follow up; type: in vivo, human; details: end of 52 week study
Excerpt: as §3, §4

[8] = system: patients with multiple sclerosis; test: Category rating scales, 52 week follow up; type: in vivo, human; details: category rating scale, 52 week follow up study
Excerpt: as §2
Times taken to complete a 10 metre walk were analysed using the Kruskal-Wallis test, and non-parametric methods were used to produce confidence intervals for the median. The RMI, UKNDS, postal BI, and GHQ-30 were each analysed using non-parametric analysis of variance to compare the groups. EDSS scores were analysed using Fisher's exact test. Category rating scales were analysed using contingency table analysis. Comparison was made between patients choosing to continue on medication and those who chose to discontinue, by baseline Ashworth scores, RMI, EDSS, age, weight, ambulatory status, type of disease, sex, and use of urinary catheter. No adjustments were made for multiple comparisons.

[9] = system: patients with multiple sclerosis; test: Serious adverse events (hospital admissions), 52 week follow up; type: in vivo, human
Excerpt: During this study, all hospital admissions were classed as serious adverse events.

patients with MS = details: 4 week period, oral; cited from earlier work
[10] = system: multiple sclerosis patients; details: 15 week trial; cited from earlier work
[11] = system: patients with multiple sclerosis; test: Adverse events reported by patients, 15 week study

CCCCCc1cc(O)c2c(c1)OC(C)(C)[C@@H]1CCC(C)=C[C@@H]21 (relative stereo) [delta-9-THC, Delta-9-Tetrahydrocannabinol]
Mean (SD) change in Ashworth score, lower-body muscle groups [1]: 1.39 (5.21)
Mean (SD) change in Ashworth score, upper-body muscle groups [1]: 0.48 (4.70)
Mean (SD) change in total Ashworth score (baseline minus follow-up) ([1]; all muscle groups): 1.86 (7.95)
reduction of median time taken to walk 10 meters from baseline to follow-up ([2]; baseline to visit 7): 12%
patients unable to walk (number) ([2]; visit 7): 5
Depression: Deterioration, % of patients [3]: (34%)
Depression: Deterioration, number of patients [3]: 42
Depression: Improvement, % of patients [3]: (29%)
Depression: Improvement, number of patients [3]: 36
Depression: Same, % of patients [3]: (38%)
Depression: Same, number of patients [3]: 47
Energy: Deterioration, % of patients [3]: (28%)
Energy: Deterioration, number of patients [3]: 49
Energy: Improvement, % of patients [3]: (35%)
Energy: Improvement, number of patients [3]: 61
Energy: Same, % of patients [3]: (36%)
Energy: Same, number of patients [3]: 63
Irritability: Deterioration, % of patients [3]: (29%)
Irritability: Deterioration, number of patients [3]: 32
Irritability: Improvement, % of patients [3]: (33%)
Irritability: Improvement, number of patients [3]: 37
Irritability: Same, % of patients [3]: (38%)
Irritability: Same, number of patients [3]: 42
Pain: Deterioration, % of patients [3]: (17%)
Pain: Deterioration, number of patients [3]: 22
Pain: Improvement, % of patients [3]: (50%)
Pain: Improvement, number of patients [3]: 64
Pain: Same, % of patients [3]: (33%)
Pain: Same, number of patients [3]: 43
Shake/tremor: Deterioration, % of patients [3]: (25%)
Shake/tremor: Deterioration, number of patients [3]: 32
Shake/tremor: Improvement, % of patients [3]: (41%)
Shake/tremor: Improvement, number of patients [3]: 52
Shake/tremor: Same, % of patients [3]: (34%)
Shake/tremor: Same, number of patients [3]: 44
Sleep: Deterioration, % of patients [3]: (16%)
Sleep: Deterioration, number of patients [3]: 24
Sleep: Improvement, % of patients [3]: (47%)
Sleep: Improvement, number of patients [3]: 71
Sleep: Same, % of patients [3]: (38%)
Sleep: Same, number of patients [3]: 57
Spasms: Deterioration, % of patients [3]: (22%)
Spasms: Deterioration, number of patients [3]: 27
Spasms: Improvement, % of patients [3]: (49%)
Spasms: Improvement, number of patients [3]: 81
Spasms: Same, % of patients [3]: (29%)
Spasms: Same, number of patients [3]: 49
Spasticity: Deterioration, % of patients [3]: (27%)
Spasticity: Deterioration, number of patients [3]: 47
Spasticity: Improvement, % of patients [3]: (51%)
Spasticity: Improvement, number of patients [3]: 89
Spasticity: Same, % of patients [3]: (23%)
Spasticity: Same, number of patients [3]: 40
Tiredness: Deterioration, % of patients [3]: (48%)
Tiredness: Deterioration, number of patients [3]: 76
Tiredness: Improvement, % of patients [3]: (22%)
Tiredness: Improvement, number of patients [3]: 35
Tiredness: Same, % of patients [3]: (29%)
Tiredness: Same, number of patients [3]: 46
Bladder symptom improvement: No, % of patients [4]: 59%
Bladder symptom improvement: No, number of patients [4]: 97
Bladder symptom improvement: Yes, % of patients [4]: 40%
Bladder symptom improvement: Yes, number of patients [4]: 67
Pain improvement: No, % of patients [4]: 50%
Pain improvement: No, number of patients [4]: 64
Pain improvement: Yes, % of patients [4]: 50%
Pain improvement: Yes, number of patients [4]: 64
Spasticity improvement: No, % of patients [4]: 40%
Spasticity improvement: No, number of patients [4]: 73
Spasticity improvement: Yes, % of patients [4]: 60%
Spasticity improvement: Yes, number of patients [4]: 108
Tremor improvement: No, % of patients [4]: 60%
Tremor improvement: No, number of patients [4]: 67
Tremor improvement: Yes, % of patients [4]: 40%
Tremor improvement: Yes, number of patients [4]: 44
Mean (SD) difference in Ashworth scores from baseline to end of study ([5]; 52 week follow up): 1.82 (8.12)
improvement on the Ashworth scale from a baseline mean of around 22 ([5]; 52 week follow up): approximately 2 points
effect on progression of MS (spasticity and disability) ([5]; end of the 52 week treatment period): profound effects in slowing the progression of MS
treatment effect on Rivermead Mobility Index [6]: Suggestion of treatment effect
proportion of patients unable to walk at the end of the study who could walk at baseline [7]: 6%
Depression: Deterioration, % [8]: 17 (17) %
Depression: Improvement, % [8]: 26%
Depression: Same, % [8]: 57%
Energy: Deterioration, % [8]: 20%
Energy: Improvement, % [8]: 24%
Energy: Same, % [8]: 56%
Irritability: Deterioration, % [8]: 15 (15) %
Irritability: Improvement, % [8]: 30%
Irritability: Same, % [8]: 55%
Pain: Deterioration, % [8]: 16%
Pain: Improvement, % [8]: 28%
Pain: Same, % [8]: 56%
Shaking: Deterioration, % [8]: 19 (19) %
Shaking: Improvement, % [8]: 26%
Shaking: Same, % [8]: 55%
Sleep: Deterioration, % [8]: 12%
Sleep: Improvement, % [8]: 34%
Sleep: Same, % [8]: 54%
Spasms: Deterioration, % [8]: 25%
Spasms: Improvement, % [8]: 29%
Spasms: Same, % [8]: 46%
Spasticity: Deterioration, % [8]: 33%
Spasticity: Improvement, % [8]: 33%
Spasticity: Same, % [8]: 34%
Tiredness: Deterioration, % [8]: 21%
Tiredness: Improvement, % [8]: 25%
Tiredness: Same, % [8]: 54%
serious adverse events reported (total number) ([9]; 52 week follow up, all hospital admissions): 24
Serious adverse event: Insertion of baclofen pump (frequency) ([9]; CM): 0
Serious adverse event: Limb fracture (frequency) ([9]; CM): 0
Serious adverse event: Other (frequency) ([9]; CM): 8
Serious adverse event: Pneumonia/chest infection (frequency) ([9]; CM): 1
Serious adverse event: Relapse/possible relapse (frequency) ([9]; CM): 8
Serious adverse event: Seizure (frequency) ([9]; CM): 0
Serious adverse event: Urinary tract infection (frequency) ([9]; CM): 3
Serious adverse events: No. of events ([9]; CM): 20
Serious adverse events: no. of patients ([9]; CM): 18
Serious adverse event: Insertion of baclofen pump (frequency) ([9]; DM): 0
Serious adverse event: Limb fracture (frequency) ([9]; DM): 0
Serious adverse event: Other (frequency) ([9]; DM): 2
Serious adverse event: Pneumonia/chest infection (frequency) ([9]; DM): 0
Serious adverse event: Relapse/possible relapse (frequency) ([9]; DM): 2
Serious adverse event: Seizure (frequency) ([9]; DM): 0
Serious adverse event: Urinary tract infection (frequency) ([9]; DM): 0
Serious adverse events: No. of events ([9]; DM): 4 (4)
Serious adverse events: no. of patients ([9]; DM): 4 (4)
changes in Ashworth scores (patients with MS): no significant changes
slowing of progression of MS [10]: did not yield results indicating that cannabinoids including dronabinol slowed progression of MS
Adverse event: Blocked/insertion of suprapubic catheter (number) [11]: 0
Adverse event: Constipation (number) [11]: 0
Adverse event: Grand mal seizure (number) [11]: 0
Adverse event: MS relapse or possible relapse (number) [11]: 1
Adverse event: Other (number) [11]: 11
Adverse event: Pneumonia (number) [11]: 2
Adverse event: Urinary tract infection (number) [11]: 3
